In patent US20160362478A1, “CD4-MIMETIC SMALL MOLECULES SENSITIZE HUMAN IMMUNODEFICIENCY VIRUS TO VACCINE-ELICITED ANTIBODIES” (priority 2014, published 2016):

Key:
HIV-1 JR-FL [1] = assay: Infection of Cf2Th-CD4/CCR5 cells by single-round luciferase virus with HIV-1 JR-FL Env; assay type: cell-based; conditions: for IC50: Human immunodeficiency virus 1, Cf2Th-CD4/CCR5, read-out: IC50, inhibition of HIV-1 JR-FL infection; for inhibition of HIV-1 JR-FL virus relative to parental NBD-556: cells expressing CD4 and CCR5
Protocol: (§1) Recombinant luciferase viruses: 293T human embryonic kidney cells were co-transfected with plasmids expressing the pCMVΔP1Δenv HIV-1 Gag-Pol packaging construct, the R5 YU2 envelope glycoproteins, or the envelope glycoprotein of the control amphotropic murine leukemia virus (A-MLV), and the firefly luciferase-expressing vector at a DNA ratio of 1:1:3 μg using the Effectene transfection reagent (Qiagen). Co-transfection produced single-round, replication-defective viruses. The virus-containing supernatants were harvested 36-40 h after transfection, spun, aliquoted, and frozen at −80° C. until further use. The reverse transcriptase (RT) activities of all viruses were measured as described in Rho, H. M., et al. Virology 1981, 112, 355-360.
(§2) Infection by single-round luciferase viruses. Cf2Th-CCR5-CD4 target cells were seeded at a density of 6×10^3 cells/well in 96-well luminometer-compatible tissue culture plates (PerkinElmer) 24 h before infection. […] In the case of sensitization assays, a constant concentration of compounds was incubated with virus for 30 min at 37° C.; then, 17b or other antibodies (0-100 μg/mL) were added to the virus/compound mixture and incubated for an additional 30 min at 37° C. The mixtures were then added to the target cells and incubated for 48 h at 37° C.; after this time, the medium was removed from each well, and the cells were lysed by the addition of 30 μL passive lysis buffer (Promega) and three freeze-thaw cycles. An EG&G Berthold Microplate Luminometer LB 96V was used to measure the luciferase activity of each well after the addition of 100 μL of luciferin buffer (15 mM MgSO4, 15 mM KPO4, pH 7.8, 1 mM ATP, and 1 mM dithiothreitol) and 50 μL of 1 mM Firefly D-Luciferin Free Acid 99% (Prolume).
The ability of selected CD4-mimetic compounds to inhibit HIV-1 entry was examined. […] Recombinant HIV-1 expressing the firefly luciferase gene was pseudotyped with different envelope glycoproteins, either HIV-1 JR-FL Env or, as a control, the amphotropic murine leukemia virus (A-MLV) envelope glycoproteins. The recombinant viruses were incubated with cells expressing CD4 and CCR5 in the presence of different concentrations of the compounds.

HIV-1 YU2 [2] = assay: Infection of Cf2Th-CD4/CCR5 cells by single-round luciferase virus with HIV-1 YU2 Env; assay type: cell-based; conditions: Human immunodeficiency virus 1, Cf2Th-CD4/CCR5, read-out: IC50, inhibition of HIV-1 YU2 infection
Protocol: as §1
(§3) Infection by single-round luciferase viruses. Cf2Th-CCR5-CD4 target cells were seeded at a density of 6×10^3 cells/well in 96-well luminometer-compatible tissue culture plates (PerkinElmer) 24 h before infection. […] In the case of sensitization assays, a constant concentration of compounds was incubated with virus for 30 min at 37° C.; then, 17b or other antibodies (0-100 μg/mL) were added to the virus/compound mixture and incubated for an additional 30 min at 37° C. […]

A-MLV = assay: Infection by control virus pseudotyped with A-MLV envelope glycoproteins; assay type: cell-based, amphotropic murine leukemia virus; conditions: at 100 μM
Protocol: as §1, §3

HIV-1 = assay: Inhibition of HIV-1 infection (overview statement); assay type: cell-based; conditions: Human immunodeficiency virus 1, read-out: IC50, inhibition of HIV-1 infection
[3] = biological target: wild-type HIV-1 YU2 gp120 glycoprotein (Human immunodeficiency virus type 1 group M subtype B, UniProt P35961); assay: Isothermal titration calorimetry, binding to gp120; conditions: ITC, 25° C.
Protocol: Isothermal Titration Calorimetry. Thermodynamic parameters for the binding of the different inhibitors to gp120 were obtained by isothermal titration calorimetry (ITC) using a VP-ITC microcalorimeter from MicroCal/GE Healthcare (Northampton, Mass., USA). The titrations were performed at 25° C. by injecting 10 μL aliquots of inhibitor solution into the calorimetric cell (volume ˜1.4 mL) containing gp120 at a concentration of 2 μM. […] In all titration experiments, gp120 and the different inhibitors were equilibrated with PBS, pH 7.4, with 2% DMSO. The heat evolved upon each injection of inhibitor was obtained by integration of the calorimetric signal. The heat associated with inhibitor binding to gp120 was obtained by subtracting the heat of dilution from the heat of reaction. The enthalpy change (ΔH) and association constant (Ka=[…]) were obtained by nonlinear regression of the data.
The thermodynamics of the binding of each compound to the wild-type HIV-1 YU2 gp120 glycoprotein was analyzed by isothermal titration calorimetry.

HIV-1 JR-FL [4] = assay: Cold inactivation of recombinant virus on ice; assay type: cell-based; conditions: compound 50 μM
Protocol: Cold Inactivation. […] Cf2Th-CCR5-CD4 target cells were seeded at a density of […] cells/well in a 96-well luminometer-compatible tissue-culture plate (PerkinElmer) 24 h before infection. The mixtures were then added to target cells and incubated for 48 h at 37° C.; after this time, the medium was removed from each well, and the cells were lysed by the addition of 30 μL passive lysis buffer (Promega) and three freeze-thaw cycles. An EG&G Berthold Microplate Luminometer LB 96V was used to measure the luciferase activity of each well after the addition of 100 μL of luciferin buffer (15 mM MgSO4, 15 mM KPO4, pH 7.8, 1 mM ATP, and 1 mM dithiothreitol) and 50 μL of 1 mM Firefly D-Luciferin Free Acid 99% (Prolume).

HIV-1 JR-FL [5] = assay: Sensitization assay: antibody neutralization of HIV-1 JR-FL with CD4-mimetic compound; assay type: cell-based; conditions: for sensitization of HIV-1 JR-FL to neutralization by 17b and 39F antibodies: sub-neutralizing compound concentrations
Protocol: as §2
The ability of (+)-DMJ-I-228 and (+)-DMJ-II-121 to each sensitize HIV-1 to neutralization by antibodies was examined using the single-round infection of Cf2Th-CD4/CCR5 cells by recombinant HIV-1 encoding firefly luciferase. The recombinant viruses were pseudotyped with the HIV-1 Envs derived from the primary R5 HIV-1 JR-FL and YU2 isolates. Recombinant HIV-1 pseudotyped with the amphotropic murine leukemia virus (A-MLV) Env was used as a control for specificity. HIV-L neutralization was examined in the presence of sub-neutralizing concentrations of the CD4-mimetic compounds and different concentrations of monoclonal antibodies. […] The 17b antibody recognizes a well-conserved CD4i epitope on the HIV-1 gp120 core that is not formed or exposed in the unliganded Env of primary HIV-1 strains. The 39F antibody recognizes a conformation-dependent epitope in the gp120 V3 region of primary R5 HIV-1. […] and (+)-DMJ-II-121 each render primary HIV-1 isolates sensitive to neutralization by monoclonal antibodies directed against CD4i and V3 epitopes on the gp120 Env.

HIV-1 YU2 [6] = assay: Sensitization assay: antibody neutralization of HIV-1 YU2 with CD4-mimetic compound; assay type: cell-based; conditions: sub-neutralizing compound concentrations
Protocol: as §2
The ability of (+)-DMJ-I-228 and (+)-DMJ-II-121 to each sensitize HIV-1 to neutralization by antibodies was examined using the single-round infection of Cf2Th-CD4/CCR5 cells by recombinant HIV-1 encoding firefly luciferase. The recombinant viruses were pseudotyped with the HIV-1 Envs derived from the primary R5 HIV-1 JR-FL and YU2 isolates. […]

HIV-1 JR-FL [7] = assay: Sensitization of HIV-1 JR-FL to neutralization by rabbit antisera elicited by gp120 cores; assay type: cell-based
Protocol: as §2
Animal inoculations and analysis of antisera. Approximately 12-week-old female New Zealand White rabbits were housed at the AAALAC-accredited facilities at Bioqual (Rockville, Md.) under specific pathogen-free conditions. At 4-week intervals, rabbits were inoculated intramuscularly with […] of affinity-purified protein formulated in GlaxoSmithKline Adjuvant System AS01B by splitting the protein-adjuvant mix in the two hind legs. Serum was prepared, heat inactivated, and assessed for anti-gp120 ELISA titers and the presence neutralizing antibodies.
(+)-DMJ-I-228 and (+)-DMJ-II-121 were examined to determine if they could sensitize HIV-1 to neutralization by antisera elicited by an Env immunogen. […] These stabilized gp120 cores were derived from the laboratory-adapted HIV-1 HXBc2 strain and lack the V1, V2, and V3 variable regions. […]

[8] = system: HIV-1 transmitted/founder viruses; assay: Inhibition and 17b sensitization of transmitted/founder viruses; assay type: cell-based
Protocol: as §2
The ability of (+)-DMJ-II-121 to sensitize HIV-1 transmitted/founder viruses to neutralization by the 17b antibody (FIG. 8A) and antisera elicited by the 3CC gp120 core immunogen (FIG. 8B) was examined. In these experiments, the recombinant viruses were pseudotyped with the HIV-1 Envs derived from HIV-1 transmitted/founder viruses. Recombinant HIV-1 pseudotyped with the primary R5 HIV-1 JR-FL and the amphotropic murine leukemia virus (A-MLV) Envs served as positive and negative controls, respectively. HIV-1 neutralization was examined in the presence of sub-neutralizing concentrations of (+)-DMJ-II-121 and different concentrations of the 17b antibody or sera.

[9] = system: HIV-1 transmitted/founder viruses; assay: Sensitization of transmitted/founder viruses to 3CC gp120 core antisera; assay type: cell-based
Protocol: as §2
Animal inoculations and analysis of antisera. Approximately 12-week-old female New Zealand White rabbits were housed at the AAALAC-accredited facilities at Bioqual (Rockville, Md.) under specific pathogen-free conditions. […] Serum was prepared, heat inactivated, and assessed for anti-gp120 ELISA titers and the presence neutralizing antibodies. […]

[10] = biological target: HIV-1 JR-FL envelope glycoproteins (Env) (HIV-1 JR-FL); assay: cell-based or functional assay
[11] = biological target: HIV-1 YU2 envelope glycoproteins (Env) (HIV-1 YU2) (UniProt P35961); assay: cell-based or functional assay
[12] = system: primary CD4 T cells infected with transmitted/founder (T/F) viruses and their 6-month counterparts; assay: Recognition of primary CD4 T cells infected with primary HIV-1 by HIV-1+ sera; assay type: cell-based, human; conditions: data not shown

Compound	IC50 (HIV-1 JR-FL [1]) [µM]	inhibition of HIV-1 JR-FL virus relative to parental NBD-556 (HIV-1 JR-FL [1])	IC50 (HIV-1 YU2 [2]) [µM]	inhibition of A-MLV infection (A-MLV)	IC50 (HIV-1) [µM]	ability to bind monomeric gp120 relative to NBD-556 [3]	half-life of HIV-1 JR-FL infectivity on ice in the presence of the compound (HIV-1 JR-FL [4]) [h]	sensitization of HIV-1 JR-FL to neutralization by 17b and 39F antibodies (HIV-1 JR-FL [5])	sensitization of HIV-1 YU2 to neutralization by 17b and 39F antibodies (HIV-1 YU2 [6])	neutralization of pseudotyped virus, no CD4-mimetic compound [10] [µg/mL]	neutralization of pseudotyped virus, no CD4-mimetic compound [11] [µg/mL]	other results
N=C(N)NC[C@H]1Cc2ccccc2[C@@H]1NC(=O)C(=O)Nc1ccc(Cl)c(F)c1 [(+)-DMJ-II-121]	27.8	specifically inhibited the HIV-1 JR-FL virus with an improved potency	3.6	Neither (+)-DMJ-I-228 nor (+)-DMJ-II-121 inhibited A-MLV infection	2.3	significant improvement in the ability to bind monomeric gp120	1.9	each sensitized HIV-1 YU2 and JR-FL to neutralization by the 17b and 39F antibodies	each sensitized HIV-1 YU2 and JR-FL to neutralization by the 17b and 39F antibodies			sensitization of HIV-1 JR-FL to neutralization by sera from rabbits immunized with 3CC or 4CC stabilized gp120 cores (HIV-1 JR-FL [7]): sensitized HIV-1 JR-FL to neutralization; sera elicited by non-stabilized V3S core that neutralized HIV-1 JR-FL after incubation with compound (HIV-1 JR-FL [7]): None of the rabbit sera; sera from rabbits immunized with the 2CC gp120 core that neutralized HIV-1 JR-FL only in the presence of compound (HIV-1 JR-FL [7]; five sera): Three of the five sera; number of transmitted/founder viruses sensitive to compound inhibition but not sensitized to 17b neutralization [8]: Three; sensitivity of transmitted/founder virus TA5 to the compound alone ([8]; TA5 virus): did not exhibit sensitivity; number of 17b-resistant transmitted/founder HIV-1 sensitized to neutralization by the 17b antibody ([8]; of ten 17b-resistant viruses, 50 μM compound): six; sensitivity of TD12 and B5 transmitted/founder viruses to 3CC antisera in the presence of compound [9]: increased sensitivity to neutralization by 3CC antisera
17b antibody										> 100	> 100	IC50, inhibition of HIV-1 JR-FL entry into cells co-expressing CD4 and CCR5, in the presence of 30 µM (+)-DMJ-II-121 [10]: 0.6 µg/mL
N=C(N)N[C@H]1Cc2ccccc2[C@@H]1NC(=O)C(=O)Nc1ccc(Cl)c(F)c1 [(+)-DMJ-I-228]	86.9	specifically inhibited the HIV-1 JR-FL virus with an improved potency	46.7	Neither (+)-DMJ-I-228 nor (+)-DMJ-II-121 inhibited A-MLV infection	22.9	significant improvement in the ability to bind monomeric gp120	9.1	each sensitized HIV-1 YU2 and JR-FL to neutralization by the 17b and 39F antibodies	each sensitized HIV-1 YU2 and JR-FL to neutralization by the 17b and 39F antibodies			recognition of cells infected with four primary viruses by HIV-1+ sera [12]: significantly enhance recognition
39F antibody										> 100	> 100	
CC1(C)CC(NC(=O)C(=O)Nc2ccc(Cl)cc2)CC(C)(C)N1 [NBD-556, reference compound]							15.7					effect on neutralization of HIV-1 JR-FL by the 17b antibody (HIV-1 JR-FL [5]): minimally affected; effect on neutralization of HIV-1 JR-FL by the 39F antibody (HIV-1 JR-FL [5]; only at high concentrations): weakly increase
